{"source": "patent US11377442B2", "about": "“Small molecule agonists and antagonists of NR2F6 activity” (ZANDER THERAPEUTICS, INC., priority 2016, dated 2022)", "type_in_all_cases": "cell-based", "key": {"[1]": {"target": "T1, NR2F6 (Homo sapiens, UniProt P10588)", "T1 construct": "expressed in transfected cells; also transient transfection", "T1 sequence (P10588 1-404)": "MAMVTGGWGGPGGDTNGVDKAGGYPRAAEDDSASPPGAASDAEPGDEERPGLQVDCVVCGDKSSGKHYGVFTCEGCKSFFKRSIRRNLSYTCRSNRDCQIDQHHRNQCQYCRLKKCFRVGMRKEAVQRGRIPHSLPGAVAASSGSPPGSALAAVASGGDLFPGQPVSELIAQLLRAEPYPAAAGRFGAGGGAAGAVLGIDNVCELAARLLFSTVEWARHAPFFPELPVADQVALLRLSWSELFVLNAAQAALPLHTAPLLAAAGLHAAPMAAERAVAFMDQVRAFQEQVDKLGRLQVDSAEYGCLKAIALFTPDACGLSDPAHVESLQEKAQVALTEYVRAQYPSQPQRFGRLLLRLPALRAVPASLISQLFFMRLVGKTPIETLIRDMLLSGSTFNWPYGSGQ", "assay": "NR2F6 agonist screening, Firefly signal cmpd/DMSO"}, "[2]": {"system": "Renilla", "assay": "Renilla signal in NR2F6 agonist screening, cmpd/DMSO", "conditions": "Renilla, F4"}, "[3]": {"system": "HEK293 pGL4", "assay": "Firefly_pGL signal, cmpd/DMSO (pGL4 control cells)", "conditions": "Homo sapiens"}, "[4]": {"target": "T2, NR2F6 LBD (Homo sapiens, UniProt P10588)", "T2 construct": "expressed in transfected cells", "T2 sequence (P10588 165-393 limits assumed)": "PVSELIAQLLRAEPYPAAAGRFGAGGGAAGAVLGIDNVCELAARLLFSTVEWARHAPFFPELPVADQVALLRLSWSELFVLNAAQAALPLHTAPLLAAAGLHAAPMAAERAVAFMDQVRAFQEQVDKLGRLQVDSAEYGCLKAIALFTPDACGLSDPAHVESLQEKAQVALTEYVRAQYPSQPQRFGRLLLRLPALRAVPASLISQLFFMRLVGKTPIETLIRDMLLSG", "assay": "NR2F6 LBD transient transfection", "conditions": "LBD", "protocol": "FIGS. 27A and 27B show NR2F6 and LBD transient transfection, respectively, for Compound D28. Higher concentrations were excluded due to lower signal (tox effect). FIGS. 27C and 27D show NR2F6 and LBD transient transfection at different concentrations for different compounds. 9 compounds were tested on LBD transfected cells (40, 10, 2 and 0.5 μM, 4 replicates). FIGS. 27E and 27F show toxicity of Compound D28. 9 compounds were tested for cytotoxicity on LBD transfected cells (40, 10, 2 and 0.5 μM, 4 replicates). […] Cytotoxicity normalized to DMSO is shown in FIG. 27F (0% cytotoxicity corresponds to DMSO signal, 100%—zero signal).\nFIGS. 34A and 34B show NR2F6 LBD transient transfection for Compound E21. 9 compounds were tested on LBD transfected cells (40, 10, 2 and 0.5 μM, 4 replicates). FIGS. 34C and 34D show NR2F6 and LBD transient transfection at different concentrations for different compounds. 9 compounds were tested on LBD transfected cells (40, 10, 2 and 0.5 μM, 4 replicates). […] Cytotoxicity normalized to DMSO is shown in FIG. 34D (0% cytotoxicity corresponds to DMSO signal, 100%—zero signal). All compounds were tested at 5, 10, 25 and 50 uM in duplicates. Dog PBMC (1×10^6 cells/mL) were activated by 10 ng/mL PMA+500 ng/mL ionomycin. Data were normalized to controls with (100%)/without (0%) PMA+ionomycin activation.\nFIGS. 39A and 39B show NR2F6 LBD transient transfection for Compound F1. 9 compounds were tested on LBD transfected cells (40, 10, 2 and 0.5 μM, 4 replicates). FIGS. 39C and 39D show toxicity of NR2F6 LBD transient transfection. 9 compounds were tested for cytotoxicity on LBD transfected cells (40, 10, 2 and 0.5 μM, 4 replicates). Tox effect causes lower signal compared to DMSO. Cytotoxicity normalized to DMSO is shown in FIG. 39D (0% cytotoxicity corresponds to DMSO signal, 100%—zero signal)."}, "[5]": {"conditions": "read-out: Renilla, F4, cmpd/DMSO (mean)"}, "[6]": {"conditions": "1% FBS, read-out: Renilla, F4, 1% FBS, cmpd/DMSO (mean)"}, "[7]": {"conditions": "10% FBS, read-out: Renilla, F4, 10% FBS, cmpd/DMSO (mean)"}}, "note": "Where two headings read alike, the source gives them in different places.", "data": [{"smiles": "O=S1(=O)C[C@H](NC2CCCC2)[C@@H](S(=O)(=O)c2ccc(F)cc2)C1", "note": "[Compound D114]", "values": [{"measurement": "Firefly F4, cmpd/DMSO (mean)", "setting": "[1]; 0.5 uM", "value": 1.6}, {"measurement": "Firefly F4, cmpd/DMSO (mean)", "setting": "[1]; 2 uM", "value": 1.6}, {"measurement": "Firefly F4, cmpd/DMSO (mean)", "setting": "[1]; 10 uM", "value": 2.4}, {"measurement": "Firefly F4, cmpd/DMSO (mean)", "setting": "[1]; 40 uM", "value": 3.6}, {"measurement": "F4, Firefly/Renilla for S/B(F4) > 3", "setting": "[1]; 10% FBS, 40 uM", "value": 2.1}, {"measurement": "Firefly, F4/pGL4 for S/B(F4) > 3", "setting": "[1]; 10% FBS, 40 uM", "value": 1.6}, {"measurement": "Firefly, F4, 1% FBS, cmpd/DMSO (mean)", "setting": "[1]; 0.5 uM", "value": 1.3}, {"measurement": "Firefly, F4, 1% FBS, cmpd/DMSO (mean)", "setting": "[1]; 2 uM", "value": 1.0}, {"measurement": "Firefly, F4, 1% FBS, cmpd/DMSO (mean)", "setting": "[1]; 10 uM", "value": 1.8}, {"measurement": "Firefly, F4, 1% FBS, cmpd/DMSO (mean)", "setting": "[1]; 40 uM", "value": 2.2}, {"measurement": "Firefly, F4, 10% FBS, cmpd/DMSO (mean)", "setting": "[1]; 10% FBS, 0.5 uM", "value": 1.2}, {"measurement": "Firefly, F4, 10% FBS, cmpd/DMSO (mean)", "setting": "[1]; 10% FBS, 2 uM", "value": 1.1}, {"measurement": "Firefly, F4, 10% FBS, cmpd/DMSO (mean)", "setting": "[1]; 10% FBS, 10 uM", "value": 1.7}, {"measurement": "Firefly, F4, 10% FBS, cmpd/DMSO (mean)", "setting": "[1]; 10% FBS, 40 uM", "value": 3.2}, {"measurement": "fold induction at 0.5 µM", "setting": "[2]; [5]", "value": 1}, {"measurement": "fold induction at 2 µM", "setting": "[2]; [5]", "value": 1.1}, {"measurement": "fold induction at 10 µM", "setting": "[2]; [5]", "value": 1.2}, {"measurement": "fold induction at 40 µM", "setting": "[2]; [5]", "value": 1.3}, {"measurement": "fold induction at 0.5 µM", "setting": "[2]; [6]", "value": 1.1}, {"measurement": "fold induction at 2 µM", "setting": "[2]; [6]", "value": 1.2}, {"measurement": "fold induction at 10 µM", "setting": "[2]; [6]", "value": 1.7}, {"measurement": "fold induction at 40 µM", "setting": "[2]; [6]", "value": 1.8}, {"measurement": "fold induction at 0.5 µM", "setting": "[2]; [7]", "value": 0.9}, {"measurement": "fold induction at 2 µM", "setting": "[2]; [7]", "value": 1}, {"measurement": "fold induction at 10 µM", "setting": "[2]; [7]", "value": 1.1}, {"measurement": "fold induction at 40 µM", "setting": "[2]; [7]", "value": 1.5}, {"measurement": "fold induction at 0.5 µM", "setting": "[3]; HEK293, 0.5 uM, pGL4, read-out: Firefly pGL4, cmpd/DMSO (mean)", "value": 1.1}, {"measurement": "fold induction at 2 µM", "setting": "[3]; HEK293, 2 uM, pGL4, read-out: Firefly pGL4, cmpd/DMSO (mean)", "value": 1.3}, {"measurement": "fold induction at 10 µM", "setting": "[3]; HEK293, 10 uM, pGL4, read-out: Firefly pGL4, cmpd/DMSO (mean)", "value": 2}, {"measurement": "fold induction at 40 µM", "setting": "[3]; HEK293, 40 uM, pGL4, read-out: Firefly pGL4, cmpd/DMSO (mean)", "value": 2}, {"measurement": "fold induction at 0.5 µM", "setting": "[3]; HEK293, pGL4, 1% FBS, 0.5 uM, read-out: Firefly, pGL4, 1% FBS, cmpd/DMSO (mean)", "value": 1.1}, {"measurement": "fold induction at 2 µM", "setting": "[3]; HEK293, pGL4, 1% FBS, 2 uM, read-out: Firefly, pGL4, 1% FBS, cmpd/DMSO (mean)", "value": 1.3}, {"measurement": "fold induction at 10 µM", "setting": "[3]; HEK293, pGL4, 1% FBS, 10 uM, read-out: Firefly, pGL4, 1% FBS, cmpd/DMSO (mean)", "value": 1.7}, {"measurement": "fold induction at 40 µM", "setting": "[3]; HEK293, pGL4, 1% FBS, 40 uM, read-out: Firefly, pGL4, 1% FBS, cmpd/DMSO (mean)", "value": 1.5}, {"measurement": "fold induction at 0.5 µM", "setting": "[3]; HEK293, pGL4, 10% FBS, 0.5 uM, read-out: Firefly, pGL4, 10% FBS, cmpd/DMSO (mean)", "value": 1.3}, {"measurement": "fold induction at 2 µM", "setting": "[3]; HEK293, pGL4, 10% FBS, 2 uM, read-out: Firefly, pGL4, 10% FBS, cmpd/DMSO (mean)", "value": 1.3}, {"measurement": "fold induction at 10 µM", "setting": "[3]; HEK293, pGL4, 10% FBS, 10 uM, read-out: Firefly, pGL4, 10% FBS, cmpd/DMSO (mean)", "value": 1.5}, {"measurement": "fold induction at 40 µM", "setting": "[3]; HEK293, pGL4, 10% FBS, 40 uM, read-out: Firefly, pGL4, 10% FBS, cmpd/DMSO (mean)", "value": 2}, {"measurement": "Firefly LBD, cmpd/DMSO (mean)", "setting": "[4]; 0.5 uM", "value": 1.1}, {"measurement": "Firefly LBD, cmpd/DMSO (mean)", "setting": "[4]; 2 uM", "value": 1.3}, {"measurement": "Firefly LBD, cmpd/DMSO (mean)", "setting": "[4]; 10 uM", "value": 1.9}, {"measurement": "Firefly LBD, cmpd/DMSO (mean)", "setting": "[4]; 40 uM", "value": 2.2}]}]}
